Assay results reported in patent US20060111408A1, “Therapeutic benzothiazole compounds” (priority 2000, published 2006).

Assays:
βER = biological target: T1, βER (Homo sapiens, UniProt Q92731); test: Cell-based assay for ER transcriptional activity (ERE β-gal reporter), βER-transfected 293 cells; conditions: for EC50: 293 cells transfected with βER and ERE β-gal reporter; for Emax: HEK293, 293 cells transfected with βER, max controls 10 nM beta-estradiol; for ERE Selectivity: β-ER over α-ER, from ERE EC50 values
T1 construct: expressed in transfected cells; host or cells: 293 cells (Human Embryonic Kidney, ATCC CRL-1573); the transfection step says 293T
T1 sequence (Q92731 54-530 limits assumed): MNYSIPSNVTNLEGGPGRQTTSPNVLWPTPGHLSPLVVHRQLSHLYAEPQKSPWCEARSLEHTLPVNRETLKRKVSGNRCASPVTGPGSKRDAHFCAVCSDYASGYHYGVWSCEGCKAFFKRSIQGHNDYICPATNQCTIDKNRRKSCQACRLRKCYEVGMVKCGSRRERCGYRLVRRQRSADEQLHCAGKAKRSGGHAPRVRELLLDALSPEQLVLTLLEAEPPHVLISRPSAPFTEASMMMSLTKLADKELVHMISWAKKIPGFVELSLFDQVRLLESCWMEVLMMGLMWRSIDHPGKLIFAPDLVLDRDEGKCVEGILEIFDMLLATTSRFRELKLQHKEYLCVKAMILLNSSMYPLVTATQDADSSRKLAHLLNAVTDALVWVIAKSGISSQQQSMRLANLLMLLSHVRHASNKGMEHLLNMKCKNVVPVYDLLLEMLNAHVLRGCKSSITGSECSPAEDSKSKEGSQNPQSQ
Procedure: (§1) Cell-based Assay for ER Transcriptional Activity:
(§2) ERs are ligand-dependent transcription factors that bind the promoter regions of genes at a consensus DNA sequence called the estrogen responsive element (ERE). The ER agonist or antagonist activity of a drug was determined by measuring the amount of reporter enzyme activity expressed from a plasmid under the control of an estrogen-responsive element when cells transiently transfected with ER and the reporter plasmid were exposed to drug. These experiments were conducted according to the following methods.
(§3) Cells are grown in DMEM supplemented with 10% FBS, glutamine, sodium pyruvate and penicillin/streptomycin. Cells are grown to 80% confluency and split 1:10 or 1:20.
(§4) 2. The next day the media is changed, 1 hour prior to transfection, to fresh phenol red-free DMEM 10% FBS (charcoal stripped) and supplements.
(§5) 3. Transfections are performed using the Profection Kit from Promega #El 200, this kit is based on calcium phosphate mediated transfection. Reagents are added in sterile polystyrene tubes in the following order:
(§6) 6. The day after transfection, cells are washed 2× with PBS Ca Mg freePBS containing 1 mM EGTA pH=7.6. […] Trypsin is neutralized with 6 ml DMEM (no phenol red)+10% charcoal stripped FBS. Cells are pelleted at 1000×g for 5 min. Cell pellet is resuspended in 10 ml DMEM (no phenol red)+2% charcoal stripped FBS supplemented with glutamine and Penn/Strep and the cells are counted. Additional medium is added to dilute the cell density to 500,000 cells/ml.
(§7) 7. […] Plates are incubated for approx. 2-4 hours to allow cells to attach.
(§8) 8. Compounds are prepared at concentration of 4 mM in 100% DMSO, then diluted into medium with supplements but no serum. The first 2 dilutions are done in medium with no DMSO, then the remaining dilutions are in medium plus 0.5% DMSO to keep the vehicle constant. Max controls are 10 nM beta-estradiol and background controls are 0.5% DMSO. Compounds are normally tested in the range of 10 uM to 1 nM and are prepared at twice the concentration to be tested. The compounds are added to the cell plates, 50 ul per well. All compounds are tested with an n=4 wells for single poke and n=2 for 9-pt curves.
(§9) 9. Cells are incubated overnight at 37° C. with the compounds.
(§10) 1. After 18-24 hr of stimulation, 100 ul of 7% CPRG cocktail is added to each well, the plate is incubated at 37C for approximately 30 minutes to 2 hours or until the OD reaches between 1.0 and 2.0.
(§11) 2. The plates are read on a spectrophotometric plate reader (Spectramax, Molecular Devices) at 570 nm and raw absorbances are obtained.
(§12) Data is compiled and interpreted with Excel using XLFit or GraphPad Prism to fit concentration-response curves.

human recombinant ERβ = biological target: T2, human recombinant ERβ (Homo sapiens, UniProt Q92731); test: Fluorescence polarization estrogen receptor (ERFP) binding assay, ERβ; conditions: for Ki: fluorescence polarization competition with Fluormone ES2, IC50 converted to Ki by Kenakin formula, read-out: FP β-ER Ki; for FP Selectivity: β-ER over α-ER, from FP Ki values
T2 construct: purchased PanVera (Madison, Wis.)
T2 sequence (Q92731 whole entry): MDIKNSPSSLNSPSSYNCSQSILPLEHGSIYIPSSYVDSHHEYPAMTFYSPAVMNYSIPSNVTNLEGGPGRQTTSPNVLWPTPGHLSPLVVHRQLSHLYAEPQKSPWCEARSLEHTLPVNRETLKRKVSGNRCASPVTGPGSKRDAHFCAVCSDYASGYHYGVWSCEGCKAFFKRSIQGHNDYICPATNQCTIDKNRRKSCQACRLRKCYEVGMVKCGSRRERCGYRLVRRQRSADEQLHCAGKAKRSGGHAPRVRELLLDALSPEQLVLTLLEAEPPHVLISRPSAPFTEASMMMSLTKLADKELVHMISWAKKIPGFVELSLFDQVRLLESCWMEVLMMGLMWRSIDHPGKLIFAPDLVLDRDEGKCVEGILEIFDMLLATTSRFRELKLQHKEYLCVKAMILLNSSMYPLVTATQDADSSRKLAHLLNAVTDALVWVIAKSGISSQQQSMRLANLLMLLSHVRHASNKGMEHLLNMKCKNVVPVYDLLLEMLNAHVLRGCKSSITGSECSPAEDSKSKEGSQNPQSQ
Procedure: (§13) Abbreviated Procedure for Fluorescence Polarization Estrogen Receptor (ERFP) Binding Assay
(§14) A homogeneous mix-and-measure estrogen receptor (ER) binding assay which utilizes fluorescence polarization (FP) technology is used to identify compounds with affinity for the estrogen receptor. Purchased from PanVera (Madison, Wis.), assay reagents include purified human recombinant ERα, human recombinant ERβ, ES2 screening buffer (100 mM potassium phosphate, pH 7.4, 100 μg/mL bovine gamma globulin), and Fluormone™ ES2.
(§15) For competition binding experiments, dilutions of test compounds are prepared at 2× the final assay concentration in 0.2% DMSO in ES2 Screening buffer on TECAN Genosys, and 25 μL compound/well is dispensed into black Costar ½ volume 96-well plates. […] Plates are gently shaken for at least 5 minutes to mix and incubated for at least 1 hr 45 minutes to achieve equilibrium. (Reaction mixtures are stable for up to 5 hours).
(§16) Polarized fluorescence intensity values are collected and subsequently converted electronically to millipolarization (mp) values. Following data reduction and normalization with Excel and/or Prism software, % Ctrl values at the various test concentrations are used to obtain IC50 values via non-linear regression analysis of a four-parameter logistic equation.

αER = biological target: T3, αER (Homo sapiens, UniProt P03372); test: Cell-based assay for ER transcriptional activity (ERE β-gal reporter), αER-transfected 293 cells; conditions: for EC50: 293 cells transfected with αER and ERE β-gal reporter, read-out: ERE α-ER EC50; for ERE α-ER Max: 293 cells transfected with αER, max controls 10 nM beta-estradiol
T3 construct: expressed in transfected cells; host or cells: 293 cells (Human Embryonic Kidney, ATCC CRL-1573); the transfection step says 293T
T3 sequence (P03372 1-595): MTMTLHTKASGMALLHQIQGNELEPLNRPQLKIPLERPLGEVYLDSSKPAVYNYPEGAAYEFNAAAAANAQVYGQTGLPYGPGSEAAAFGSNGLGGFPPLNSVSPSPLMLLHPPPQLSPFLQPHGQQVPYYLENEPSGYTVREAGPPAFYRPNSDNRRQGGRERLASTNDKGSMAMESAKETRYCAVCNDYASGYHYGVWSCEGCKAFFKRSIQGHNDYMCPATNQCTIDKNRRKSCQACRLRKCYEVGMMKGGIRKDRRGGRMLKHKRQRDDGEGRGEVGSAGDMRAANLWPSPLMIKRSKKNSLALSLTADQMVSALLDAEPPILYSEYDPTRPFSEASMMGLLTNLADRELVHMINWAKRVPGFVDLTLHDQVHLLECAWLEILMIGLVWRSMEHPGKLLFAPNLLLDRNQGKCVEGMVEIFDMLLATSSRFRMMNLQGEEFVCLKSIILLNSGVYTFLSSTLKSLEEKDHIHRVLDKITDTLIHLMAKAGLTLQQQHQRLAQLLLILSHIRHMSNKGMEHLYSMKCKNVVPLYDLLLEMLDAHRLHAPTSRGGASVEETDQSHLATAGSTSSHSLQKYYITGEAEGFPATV
Procedure: as §1, §2, §3, §4, §5, §6, §7, §8, §9, §10, §11, §12

human recombinant ERα = biological target: T4, human recombinant ERα (Homo sapiens, UniProt P03372); test: Fluorescence polarization estrogen receptor (ERFP) binding assay, ERα; conditions: fluorescence polarization competition with Fluormone ES2; IC50 converted to Ki by Kenakin formula; read-out: FP α-ER Ki
T4 construct: purchased PanVera (Madison, Wis.)
T4 sequence (P03372 1-595): T3 sequence (P03372 1-595)
Procedure: as §13, §14
as §15, with “hours). After centrifugation to remove air bubbles, plates are read on an LJL Analyst or Acquest equipped with Criterion software at the following settings: Fluorescence Polarization Mode; Static Polarizer on Excitation Side; Dynamic Polarizer on Emission Side; Excitation λ=485+/−10 nm; Emission λ=520+/−12.5 nm.” for “hours).”
as §16
Reference: Bolger et al., Rapid Screening of Environmental Chemicals for Estrogen Receptor Binding Capacity, Environmental Health Pespectives: 106 (1998), 1-7.

SMILES	EC50 (βER) [nM]	Emax (βER) [%]	ERE Selectivity (βER)	Ki (human recombinant ERβ) [nM]	FP Selectivity (human recombinant ERβ)	EC50 (αER) [nM]	ERE α-ER Max (αER) [%]	Ki (human recombinant ERα) [nM]
Oc1ccc(-c2nc3c(Cl)cc(O)cc3o2)cc1 [Example 1, 4-Chloro-6-hydroxy-2-(4-hydroxyphenyl)benzoxazole]	1.2	98	52	1.7	10	61	103	18
Cc1cc(O)cc2oc(-c3ccc(O)cc3)nc12 [Example 3, 6-Hydroxy-2-(4-hydroxyphenyl)-4-methylbenzoxazole]	23	89	22	4.8	25	497	102	121
Oc1ccc(-c2nc3c(O)cc(O)cc3o2)cc1 [Example 5, 4,6-Dihydroxy-2-(4-hydroxyphenyl)benzoxazole]	–	98	1.8	290	3	–	102	1000
COc1ccc2oc(-c3ccc(O)cc3)nc2c1 [Example 8, 2-(4-hydroxyphenyl)-5-methoxybenzoxazole]	–	–	–	148	3	–	–	477
Oc1cc(Br)c2oc(-c3ccc(O)c(Cl)c3)nc2c1 [Example 12, 7-Bromo-2-(3-chloro-4-hydroxy-phenyl)-benzooxazol-5-ol]	0.5	81	153	1.8	30	76	37	54
